Like-named read-outs stand apart in the source and are kept apart here.
Experiments:
[1] = tested on: HCV; assay: HCV infectivity and replication kinetics in vitro with extracellular PCSK9 in presence/absence of alirocumab; assay type: cell-based; conditions: addition of extracellular PCSK9 in the presence/absence of alirocumab
[2] = monkey, cited from earlier work
[3] = Patient with chronically elevated liver enzymes and bilirubin treated with Praluent brand alirocumab; assay type: in vivo, human; conditions: middle age person
Text: A middle age person had chronically elevated AST, ALT and gamma glutamyl transferase and elevated bilirubin levels and clay colored stools. There was no viral hepatitis. […] The patient also felt less fatigued.

[4] = monkeys, 3-month, co-administered with atorvastatin at doses producing modest ALT increases; cited from earlier work
[5] = cited from earlier work
[6] = monkey, in vivo; cited from earlier work
[7] = humans administered alirocumab; cited from earlier work
[8] = monkey, in vivo; cited from earlier work; remark: listed apart in the source
[9] = monkey, in vivo; cited from earlier work; remark: listed apart in the source
[10] = rat, in vivo; cited from earlier work
[11] = rat, in vivo; cited from earlier work; remark: listed apart in the source
[12] = tested on: CD81; assay: CD81 expression in vivo in PCSK9-/- mice after alirocumab; conditions: after administering alirocumab
Experimental: (§1) CD81 expression in vivo in PCSK9−/−mice and in hyperlipidemic mice expressing human PCSK9 with reduced LDLR expression (PCSK9hum/hum/LDLR+/−) were tested after administering alirocumab; no changes in total CD81 levels were observed. […] Based on conflicting data, the relevant scientific literature is currently considered inadequate to conclusively address the potential impact of alirocumab on HCV infectivity. It should be noted that increased cell-surface LDLR has also been postulated to modulate HCV infectivity; statins, like alirocumab, increase cell-surface LDLR.

[13] = tested on: CD81; assay: CD81 expression in vivo in hyperlipidemic PCSK9hum/hum/LDLR+/- mice after alirocumab; conditions: hyperlipidemic mice expressing human PCSK9 with reduced LDLR expression (PCSK9hum/hum/LDLR+/-), after administering alirocumab
Experimental: as §1

[14] = chronically elevated, no viral hepatitis, after treatment for 1-2 months

**Q.** Which “effects on HCV infectivity” value [1] does the source give for alirocumab here?
**A.** The value was “No effects”.

**Q.** What about the “effects on HCV replication kinetics” value [1] of the same substance?
**A.** Its value is “No effects”.

**Q.** What about the “sinusoidal cell defects in the liver (this phenomenon)” value ([2]; in vivo) of the same substance?
**A.** The value was “not observed”.

**Q.** What about the HDL-C levels [2] of the same substance?
**A.** Its HDL-C levels is “greatly reduced”.

**Q.** What about the ALT [3, 14] of the same substance?
**A.** The ALT was “returned to normal”.

**Q.** And the AST [3, 14]?
**A.** The AST was “returned to normal”.

**Q.** What about the gamma glutamyl transferase [3, 14] of the same substance?
**A.** Its gamma glutamyl transferase is “returned to normal”.

**Q.** And the bilirubin levels ([3]; elevated, after treatment for 1-2 months)?
**A.** The bilirubin levels was “returned to normal”.

**Q.** What about the fatigue ([3]; after treatment) of the same substance?
**A.** The fatigue was “less fatigued”.

**Q.** And the clay colored stools ([3]; after treatment for 1-2 months)?
**A.** Its clay colored stools is “became normal”.

**Q.** And the liver toxicity [4]?
**A.** Its liver toxicity is “not exacerbated”.

**Q.** And the “sinusoidal cell defects in the liver” value ([5]; rat, in vivo)?
**A.** Its value is “sinusoidal cell defects were observed”.

**Q.** And the HDL ([5]; rats administered alirocumab)?
**A.** Its HDL is “low HDL”.

**Q.** What about the imbalances for infections [6] of the same substance?
**A.** Its imbalances for infections is “no imbalances”.

**Q.** What about the HDL-C [7] of the same substance?
**A.** Its HDL-C is “not reduced”.

**Q.** And the “alirocumab-related effects on peripheral neurons” value [8]?
**A.** Its value is “No significant alirocumab-related effects”.

**Q.** And the “effects on T-cell dependent antibody response” value [9]?
**A.** Its value is “no effects”.

**Q.** And the “effects on cytotoxic T-cell activity” value [9]?
**A.** Its value is “no effects”.

**Q.** And the “effects on immune cell populations” value [9]?
**A.** Its value is “no effects”.

**Q.** And the “effects on natural killer cell activity” value [9]?
**A.** The value was “no effects”.

**Q.** What about the “alirocumab-related effects on peripheral neurons” value [10] of the same substance?
**A.** Its value is “No significant alirocumab-related effects”.

**Q.** And the imbalances for infections [11]?
**A.** Its imbalances for infections is “no imbalances”.

**Q.** And the “total CD81 levels” value [12]?
**A.** The value was “no changes”.

**Q.** What about the “total CD81 levels” value [13] of the same substance?
**A.** Its value is “no changes”.
